{"source": "ChEMBL document CHEMBL6083182", "about": "“Development of Peptide Paratope Mimics Derived from the Anti-ROR1 Antibody and Long-Acting Peptide-Drug Conjugates for Targeted Cancer Therapy” (J Med Chem, 2024)", "key": {"[1]": {"system": "MDA-MB-231", "test": "Cytotoxicity against ROR1-positive human MDA-MB-231 cells assessed as decrease in cell viability incubated for 24 hrs by CCK-8 assay", "format": "functional, cell-based", "details": "MDA-MB-231, 24 h"}, "[2]": {"system": "SK-HEP1", "test": "Cytotoxicity against human SK-HEP1 cells assessed as decrease in cell viability incubated for 24 hrs by CCK-8 assay", "format": "functional, cell-based", "details": "SK-HEP1, 24 h"}, "[3]": {"test": "Cytotoxicity against human MCF-10A cells assessed as decrease in cell viability incubated for 24 hrs by CCK-8 assay", "format": "toxicity, cell-based"}, "[4]": {"test": "Drug uptake in ROR1-positive human MDA-MB-231 cells assessed as increase in fluorescence intensity incubated for 0.25 to 2 hrs by Hoechst 33342 staining based confocal fluorescence microscopic analysis", "format": "ADME, cell-based", "details": "time 0.25-2 hrs"}, "[5]": {"system": "MDA-MB-231", "test": "Induction of apoptosis in human MDA-MB-231 cells at 10 uM incubated for 24 hrs by Annexin V-FITC/PI staining based flow cytometric analysis", "format": "functional, cell-based"}, "[6]": {"system": "MDA-MB-231", "test": "Induction of apoptosis in human MDA-MB-231 cells assessed as viable cells at 16 nM incubated for 24 hrs by AnnexinV-FITC/PI staining based flow cytometry (reference value: 99.9%)", "format": "functional", "details": "read-out: Activity"}, "[7]": {"system": "MDA-MB-231", "test": "Induction of apoptosis in human MDA-MB-231 cells assessed as early apoptotic cells at 16 nM incubated for 24 hrs by AnnexinV-FITC/PI staining based flow cytometry (reference value: 0%)", "format": "functional"}, "[8]": {"system": "MDA-MB-231", "test": "Induction of apoptosis in human MDA-MB-231 cells assessed as late apoptotic cells at 16 nM incubated for 24 hrs by AnnexinV-FITC/PI staining based flow cytometry (reference value: 0.034%)", "format": "functional"}, "[9]": {"system": "MDA-MB-231", "test": "Induction of apoptosis in human MDA-MB-231 cells assessed as necrotic cells at 16 nM incubated for 24 hrs by AnnexinV-FITC/PI staining based flow cytometry (reference value: 0.034%)", "format": "functional"}, "[10]": {"system": "MDA-MB-231", "test": "Antitumor activity against human MDA-MB-231 cells xenografted in BALB/c nude mouse assessed as reduction in tumor volume at 5 mg/kg, iv measured after first injection starting from day 3 on day 6", "format": "functional, organism-based", "details": "time 3.0 day"}, "[11]": {"test": "Toxicity in BALB/c nude mouse xenografted with human MDA-MB-231 cells assessed as body weight loss at 5 mg/kg, iv administered once every 3 days for 27 days starting from day 3", "format": "organism-based", "details": "in vivo, 576 h, time 24 day"}, "[12]": {"system": "MDA-MB-231", "test": "Antitumor activity against human MDA-MB-231 cells xenografted in BALB/c nude mouse assessed as tumor growth inhibition at 5 mg/kg, iv administered once every 3 days for 27 days starting from day 3", "format": "functional, organism-based", "details": "time 24.0 day"}, "[13]": {"test": "Toxicity in BALB/c nude mouse xenografted in human MDA-MB-231 cells assessed as increase in urea level at 5 mg/kg, iv administered once every 3 days for 27 days starting from day 3", "format": "organism-based", "details": "in vivo, 576 h, time 24 day"}, "[14]": {"test": "Toxicity in BALB/c nude mouse xenografted in human MDA-MB-231 cells assessed as increase in ALT level at 5 mg/kg, iv administered once every 3 days for 27 days starting from day 3", "format": "organism-based", "details": "in vivo, 576 h, time 24 day"}, "[15]": {"test": "Toxicity in BALB/c nude mouse xenografted in human MDA-MB-231 cells assessed as increase in AST level at 5 mg/kg, iv administered once every 3 days for 27 days", "format": "organism-based", "details": "in vivo, 576 h, time 24 day"}, "[16]": {"test": "Toxicity in BALB/c nude mouse xenografted in human MDA-MB-231 cells assessed as increase in ALP level at 5 mg/kg, iv administered once every 3 days for 27 days starting from day 3", "format": "organism-based", "details": "in vivo, 576 h, time 24 day"}, "[17]": {"test": "Toxicity in BALB/c nude mouse xenografted with human MDA-MB-231 cells assessed as appearance of apoptotic/necrotic cells in kidney at 5 mg/kg, iv administered once every 3 days for 27 days starting from day 3 by H and E staining based analysis", "format": "organism-based", "details": "in vivo, 576 h, time 24 day"}, "[18]": {"test": "Toxicity in BALB/c nude mouse xenografted with human MDA-MB-231 cells assessed as appearance of apoptotic/necrotic cells in heart at 5 mg/kg, iv administered once every 3 days for 27 days starting from day 3 by H and E staining based analysis", "format": "organism-based", "details": "in vivo, 576 h, time 24 day"}, "[19]": {"test": "Toxicity in BALB/c nude mouse xenografted with human MDA-MB-231 cells assessed as appearance of apoptotic/necrotic cells in liver at 5 mg/kg, iv administered once every 3 days for 27 days starting from day 3 by H and E staining based analysis", "format": "organism-based", "details": "in vivo, 576 h, time 24 day"}, "[20]": {"test": "Toxicity in BALB/c nude mouse xenografted with human MDA-MB-231 cells assessed as appearance of apoptotic/necrotic cells in lungs at 5 mg/kg, iv administered once every 3 days for 27 days starting from day 3 by H and E staining based analysis", "format": "organism-based", "details": "in vivo, 576 h, time 24 day"}, "[21]": {"target": "T1, Inactive tyrosine-protein kinase transmembrane receptor ROR1 (Homo sapiens, UniProt Q01973)", "T1 sequence (Q01973 whole entry, the tested form may be a part)": "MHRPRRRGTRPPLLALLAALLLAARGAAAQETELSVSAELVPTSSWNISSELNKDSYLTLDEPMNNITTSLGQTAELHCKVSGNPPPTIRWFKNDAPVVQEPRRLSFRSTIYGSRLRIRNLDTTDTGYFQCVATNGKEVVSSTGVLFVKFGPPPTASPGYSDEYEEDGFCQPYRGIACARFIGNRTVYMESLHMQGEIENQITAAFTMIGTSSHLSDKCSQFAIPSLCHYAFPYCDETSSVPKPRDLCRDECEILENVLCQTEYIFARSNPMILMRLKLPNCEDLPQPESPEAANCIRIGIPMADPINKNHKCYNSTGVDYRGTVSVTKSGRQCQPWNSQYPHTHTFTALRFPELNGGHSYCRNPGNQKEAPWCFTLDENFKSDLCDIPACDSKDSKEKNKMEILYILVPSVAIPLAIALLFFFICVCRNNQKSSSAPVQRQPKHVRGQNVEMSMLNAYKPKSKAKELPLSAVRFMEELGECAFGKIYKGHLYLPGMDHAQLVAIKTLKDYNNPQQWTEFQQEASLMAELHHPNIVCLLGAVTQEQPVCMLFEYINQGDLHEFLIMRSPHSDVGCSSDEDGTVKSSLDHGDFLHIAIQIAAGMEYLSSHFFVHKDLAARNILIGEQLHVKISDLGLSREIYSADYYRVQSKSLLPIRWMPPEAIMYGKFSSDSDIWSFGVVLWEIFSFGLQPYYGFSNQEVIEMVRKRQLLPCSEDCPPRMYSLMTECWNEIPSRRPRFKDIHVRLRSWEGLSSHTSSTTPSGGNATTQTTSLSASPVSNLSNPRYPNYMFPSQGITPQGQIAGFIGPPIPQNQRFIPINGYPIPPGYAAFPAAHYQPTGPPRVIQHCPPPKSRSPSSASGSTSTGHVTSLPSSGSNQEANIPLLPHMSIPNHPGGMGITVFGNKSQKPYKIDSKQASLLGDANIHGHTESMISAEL", "test": "Binding affinity to N-terminal His/GST-tagged recombinant human ROR1 (453 to 783 residues) extracted from baculovirus infected insect cells assessed as dissociation constant by SPR analysis"}, "[22]": {"target": "T1, Inactive tyrosine-protein kinase transmembrane receptor ROR1", "test": "Binding affinity to ROR1 positive human MDA-MB-231 cells at 10 uM administered as FITC-labeled compound and measured after 30 mins by Hoechst 33342 staining based confocal fluorescence microscopic analysis", "format": "cell-based"}, "[23]": {"system": "MCF7", "test": "Binding affinity to ROR1 negative human MCF7 cells at 10 uM administered as FITC-labeled compound and measured after 30 mins by Hoechst 33342 staining based confocal fluorescence microscopic analysis", "format": "functional, cell-based"}, "[24]": {"test": "Drug uptake in ROR1 positive human MDA-MB-231 cells administered as FITC-labeled compound and measured after 30 to 120 mins by Hoechst 33342 staining based confocal fluorescence microscopic analysis", "format": "ADME, cell-based", "details": "time 30-120 min"}, "[25]": {"test": "Drug penetration in human MDA-MB-231 cell spheroids assessed as increase in penetration rate at 10 uM administered as FITC-labeled compound and measured at 0.5 hrs by dual-color in vivo high-speed two-photon imaging system", "format": "ADME", "details": "mda-mb-231, 0.5 h"}, "[26]": {"test": "Drug penetration in human MDA-MB-231 cell spheroids assessed as fluorescence penetration rate at 10 uM administered as FITC-labeled compound and measured at 1 hrs by dual-color in vivo high-speed two-photon imaging system", "format": "ADME", "details": "mda-mb-231, 1 h"}, "[27]": {"species": "Homo sapiens", "test": "Binding affinity to CD16A (unknown origin) by SPR analysis"}, "[28]": {"test": "Drug uptake in BALB/c nude mouse tumor xenografted with human MDA-MB-231 cells assessed as increase in fluorescence signal administered as indocyanine green dye conjugate and measured after 0.5 hrs by invivo imaging analysis", "format": "ADME, tissue-based, Neoplasm", "details": "in vivo"}, "[29]": {"test": "Drug uptake in BALB/c nude mouse tumor xenografted with human MDA-MB-231 cells assessed as increase in fluorescence signal administered as indocyanine green dye conjugate and measured after 1 hrs by ex-vivo imaging analysis", "format": "ADME, tissue-based, Neoplasm"}, "[30]": {"test": "Drug uptake in BALB/c nude mouse liver xenografted with human MDA-MB-231 cells assessed as increase in fluorescence signal administered as indocyanine green dye conjugate and measured after 1 hrs by ex-vivo imaging analysis", "format": "ADME, tissue-based"}, "[31]": {"test": "Drug uptake in BALB/c nude mouse kidney xenografted with human MDA-MB-231 cells assessed as increase in fluorescence signal administered as indocyanine green dye conjugate and measured after 1 hrs by ex-vivo imaging analysis", "format": "ADME, tissue-based"}, "[32]": {"test": "Drug distribution in BALB/c nude mouse tumor xenografted with human MDA-MB-231 cells assessed as increase in fluorescence signal administered as indocyanine green dye conjugate and measured after 1 hrs by DAPI staining based immunofluorescence analysis", "format": "ADME, tissue-based, Neoplasm", "details": "in vivo"}}, "note": "Activity calls are given as the source filed them. The calls are words filed in the database; no cut-off is given here."}
{"compound": "COc1cccc2c1C(=O)c1c(O)c3c(c(O)c1C2=O)C[C@@](O)(C(=O)CO)C[C@@H]3O[C@H]1C[C@H](N)[C@H](O)[C@H](C)O1", "note": "[DOXORUBICIN]", "values": [{"measurement": "IC50", "setting": "[1]", "value": 183, "unit": "nM"}, {"measurement": "IC50", "setting": "[2]", "value": 28, "unit": "nM"}, {"measurement": "IC50 at 24 h", "setting": "[3]", "value": 121, "unit": "nM"}, {"measurement": "Drug uptake", "setting": "[4]", "value": "Active"}, {"measurement": "Activity", "setting": "[5]", "value": "Active; Exhibited Apoptosis Mostly In Late Stage"}, {"measurement": "viability at 0.016 µM", "setting": "[6]", "value": 71.5, "unit": "%"}, {"measurement": "Activity", "setting": "[7]", "value": 24.9, "unit": "%"}, {"measurement": "Activity", "setting": "[8]", "value": 3.25, "unit": "%"}, {"measurement": "Activity", "setting": "[9]", "value": 0.39, "unit": "%"}, {"measurement": "Activity", "setting": "[10]", "value": "inactive"}, {"measurement": "Activity", "setting": "[11]", "value": "Toxic"}, {"measurement": "Activity", "setting": "[12]", "value": "Not active; Poor Antitumor Effect Observed"}, {"measurement": "Activity", "setting": "[13]", "value": "Toxic"}, {"measurement": "Activity", "setting": "[14]", "value": "Toxic"}, {"measurement": "Activity", "setting": "[15]", "value": "Toxic"}, {"measurement": "Activity", "setting": "[16]", "value": "Toxic"}, {"measurement": "Activity", "setting": "[17]", "value": "Toxic"}, {"measurement": "Activity", "setting": "[18]", "value": "Toxic"}, {"measurement": "Activity", "setting": "[19]", "value": "Toxic"}, {"measurement": "Activity", "setting": "[20]", "value": "Toxic"}]}
{"compound": "H-SDINDRQIPGYSTYWGDF-NH2", "values": [{"measurement": "Kd", "setting": "[21]", "value": 1.57, "unit": "nM"}, {"measurement": "Activity", "setting": "[22]", "value": "Active"}, {"measurement": "Activity", "setting": "[23]", "value": "inactive"}, {"measurement": "Drug uptake", "setting": "[24]", "value": "Active"}, {"measurement": "Drug uptake", "setting": "[25]", "value": "Active"}, {"measurement": "Drug uptake", "setting": "[26]", "value": "~ 100%"}, {"measurement": "Activity", "setting": "[27]", "value": "Not active; Abnormal Binding Affinity Curves Observed"}, {"measurement": "Drug uptake", "setting": "[28]", "value": "Active"}, {"measurement": "Drug uptake", "setting": "[29]", "value": "Active"}, {"measurement": "Drug uptake", "setting": "[30]", "value": "Active"}, {"measurement": "Drug uptake", "setting": "[31]", "value": "Active"}, {"measurement": "Drug uptake", "setting": "[32]", "value": "Active"}]}
